Source: patent US7723339B2, “Combination comprising a signal transduction inhibitor and an epothilone derivative” (Novartis AG, priority 2001, dated 2010)

Assays:
[1] = test system: KAT-4 mouse thyroid carcinoma; test: KAT-4 thyroid carcinoma tumors in SCID mice; format: in vivo; details: for effect on tumor growth: STI571 100 mg/kg gavage once daily from day 3, EPO906 0.3 mg/kg s.c. days 6, 13, 20
Experimental: Study on the Effects of Combining Epothilone B Treatment of KAT-4 Mouse Thyroid Carcinoma with Treatment with STI571
Epothilone B is administered s.c. once weekly. STI571, at a dose of 100 mg/kg, is administered by gavage and given once daily. Tumor volume is determined by mesurements with calipers.
In the study four groups of tumor bearing mice are analyzed: control treated mice, mice treated with either STI571 (100 mg/kg) or 0.3 mg/kg of EPO906 alone and mice treated with both drugs. Treatment is performed on mice with an average starting size of tumor of approximatly 100 mm^3. EPO906 is given at days 6, 13 and 20 and STI571 is given once daily from day 3.

[2] = test system: rat C6 glioma tumor xenografts; test: Rat C6 glioma tumor xenografts in female BALB/C mice; format: in vivo; details: for Delta tumor volumes (mean mm^3±SEM): q7d (i.v., days 3 and 10) alone, control 1289±178
Experimental: STI571 Alone, Epothilone B (EPO906) Alone and the Combination of STI571 Plus Epothilone B Versus Rat C6 Glioma Tumor Xenografts in Female BALB/C Mice
Tumors are initiated by the s.c. injection of 1×10^6 rat C6 cells (n=8/group). When the tumors reaches ˜75 mm^3, STI571 treatment is begun at 200 mg/kg, p.o., q24h.

Structure (SMILES) | effect on tumor growth [1] | Delta tumor volumes (mean mm^3±SEM) ([2]; EPO906 1 mg/kg) [mm^3] | Delta tumor volumes (mean mm^3±SEM) ([2]; EPO906 2 mg/kg) [mm^3] | Delta tumor volume ratio treated/controls ([2]; STI571 200 mg/kg p.o. q24h, EPO906 2 mg/kg q7d) | final tumor size as % of control tumors ([1]; end of experiment, STI571 100 mg/kg once daily, EPO906 0.3 mg/kg once weekly) [%]
Cc1ccc(NC(=O)c2ccc(CN3CCN(C)CC3)cc2)cc1Nc1nccc(-c2cccnc2)n1 [STI571, N-{5-[4-(4-methyl-piperazino-methyl)-benzoylamido]-2-methylphenyl}-4-(3-pyridyl)-2-pyrimidine-amine] | no effect |  |  |  | 
C/C(=C\c1csc(C)n1)[C@@H]1C[C@@H]2O[C@]2(C)CCC[C@H](C)[C@H](O)[C@@H](C)C(=O)C(C)(C)[C@@H](O)CC(=O)O1 [EPO906, epothilone B] | statistically significant reduction of tumor growth | 864±115 | 419±116 | 0.325 | 69
